Measured values as given in article PMC4865847, “Putative histidine kinase inhibitors with antibacterial effect against multi-drug resistant clinical isolates identified by in vitro and in silico screens” (Scientific Reports, 2016).
≈ marks a conversion by molar mass, not a printed value. Where two headings read alike, the source gives them in different places.

Legend:
[1] = Hemolysis assay; type: cell-based; settings: human
Method: Hemolytic activity against human erythrocytes taken from a healthy donor was measured as previously described. The hemolysis experiments were carried out in accordance with the guidelines of the United Arab Emirates University (UAEU) Research Ethics Review Board. All experimental protocols were approved by the Research Ethics Review Board of UAEU and informed consent was obtained from all donors.

[2] = system: Escherichia coli; experiment: Antibacterial susceptibility testing (MIC/MBC), E. coli; type: cell-based; settings: Escherichia coli
Method: (§1) Minimal inhibitory concentrations (MICs) were determined following a standard double-dilution method. […] For S. pneumoniae MICs were determined by adapting the standard double-dilution method to anaerobic conditions and of this microorganism (use of Todd Hewitt Yeast extract with 200 U/mL of catalase and continuous monitoring of growth).

[3] = system: Staphylococcus epidermidis; experiment: Antibacterial susceptibility testing (MIC/MBC), S. epidermidis; type: cell-based; settings: for MBC / MIC: Staphylococcus epidermidis
Method: as §1

[4] = target: T1, S. pneumoniae WalK (Streptococcus pneumoniae, UniProt Q8DPL8); experiment: In vitro autophosphorylation kinase assay with γ-32P-ATP, WalK; type: biochemical; settings: autophosphorylation, one time point (30 sec), 10% DMSO
T1 construct: WalK (amino acids from 208 to 449); N-terminal His6-3C site of vector pOPINF (own knowledge of the vector); made in house; host or cells: E. coli RIL
T1 sequence (Q8DPL8 208-449): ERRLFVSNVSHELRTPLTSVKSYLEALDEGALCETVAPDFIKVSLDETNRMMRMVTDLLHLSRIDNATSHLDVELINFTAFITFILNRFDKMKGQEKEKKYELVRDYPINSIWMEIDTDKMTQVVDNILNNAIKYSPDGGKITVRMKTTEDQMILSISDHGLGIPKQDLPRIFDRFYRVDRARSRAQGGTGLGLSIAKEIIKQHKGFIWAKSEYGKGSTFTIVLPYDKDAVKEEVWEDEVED
Method: To evaluate the inhibitory capacity of selected hits from DSF, SBVS and LBSS in vitro autophosphorylation kinase assays with γ-^32P-ATP were performed as previously described. Ligands were dissolved in 100% DMSO. […] Controls lacking ligands contained an equal concentration of DMSO. Inhibition of autophosphorylation was determined by incubating 0.12 mg/ml (≈4 μM) HK and up to 20 mM fragment in kinase buffer (50 mM Tris HCl, pH 8.5, 50 mM KCl, 5 mM MgCl2, 0.5 mM EDTA and 0.1 mM DTT). Autophosporylation reactions were initiated by addition of 0.1 μCi/μl γ-^32P-ATP containing from 0.03 to 0.06 μM ATP (final concentrations). Autophosphorylation was quenched with 2xSDS-PAGE sample buffer supplemented with 50 mM EDTA. […] After electrophoresis, the bottoms of the gels were removed to lower the background from the unincorporated radiolabeled ATP. Gels were dried without staining on a Bio-Rad Gel Air drying system and the phosphorylated protein was quantified by phosphor-imaging. Prism GraphPad was used for curve fitting and statistical analysis.

[5] = system: Streptococcus pneumoniae; experiment: Antibacterial susceptibility testing (MIC), S. pneumoniae; type: cell-based; settings: strain 49619
Method: (§2) Bacterial strains used in this study for antibacterial susceptibility testing (Table S5) were propagated using standard microbiological procedures. Minimal inhibitory concentrations (MICs) were determined following a standard double-dilution method. MICs were recorded as the lowest concentration of the compound where no visible growth was observed. After plating the dilutions around the MIC or growing them in fresh MH media, minimal bactericidal concentration (MBC) was recorded as the lowest concentration of the compound at which no colonies were formed or no growth was observed, respectively. For S. pneumoniae MICs were determined by adapting the standard double-dilution method to anaerobic conditions and of this microorganism (use of Todd Hewitt Yeast extract with 200 U/mL of catalase and continuous monitoring of growth).

[6] = target: T2, E. coli PhoR (PhoR^E) (Escherichia coli, UniProt P08400); experiment: In vitro autophosphorylation kinase assay with γ-32P-ATP, PhoR^E; type: biochemical; settings: autophosphorylation, one time point (30 sec), 10% DMSO
T2 construct: The catalytic portion (DHp and CA domain) of E. coli PhoR (PhoR^E); made in house; host or cells: E. coli RIL
T2 sequence (P08400 210-425): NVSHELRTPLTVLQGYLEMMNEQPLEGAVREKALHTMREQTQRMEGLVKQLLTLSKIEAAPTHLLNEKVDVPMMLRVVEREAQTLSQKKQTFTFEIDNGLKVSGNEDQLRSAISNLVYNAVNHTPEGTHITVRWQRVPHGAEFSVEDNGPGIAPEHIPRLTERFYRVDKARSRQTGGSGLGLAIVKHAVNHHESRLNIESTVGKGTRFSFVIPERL
Procedure, shortened: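 Histidine kinase (0.12 mg/ml, ≈4 μM) incubated with up to 20 mM fragment in 50 mM Tris HCl pH 8.5, 50 mM KCl, 5 mM MgCl2, 0.5 mM EDTA, 0.1 mM DTT; started with 0.1 μCi/μl γ-32P-ATP (0.03–0.06 μM ATP final). Phosphoprotein quantified by SDS-PAGE and phosphor-imaging, curve-fitted; DMSO controls.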

[7] = system: Staphylococcus aureus; experiment: Antibacterial susceptibility testing (MIC/MBC), S. aureus; type: cell-based; settings: Staphylococcus aureus; for MBC: DSM20231, strain DSM 20231, read-out: MBC S. aureus DSM 20231
Method: as §1

[8] = system: Klebsiella pneumoniae; experiment: Antibacterial susceptibility testing (MIC), K. pneumoniae; type: cell-based; settings: Klebsiella pneumoniae, ATCC700603, strain ATCC 700603
Method: as §2

[9] = system: Stenotrophomonas maltophilia; experiment: Antibacterial susceptibility testing (MIC), S. maltophilia; type: cell-based
Method: as §2

[10] = system: Streptococcus suis; experiment: Antibacterial susceptibility testing (MIC), S. suis; type: cell-based; settings: for MIC: Streptococcus suis, read-out: MIC Streptococcus suis 3881/S10, strain 3881/S10
Method: as §2

[11] = system: Pseudomonas aeruginosa; experiment: Antibacterial susceptibility testing (MIC), P. aeruginosa; type: cell-based; settings: Pseudomonas aeruginosa, ATCC27853; strain ATCC 27853
Method: as §2

[12] = system: Acinetobacter baumannii; experiment: Antibacterial susceptibility testing (MIC), A. baumannii; type: cell-based
Method: as §2

[13] = ATCC25276, strain ATCC 25276, read-out: MIC E. coli ATCC 25276
[14] = strain CFT 073, read-out: MIC E. coli CFT 073
[15] = strain RP62A (biofilm producer), read-out: MIC S. epidermidis RP62A
[16] = ATCC reference strain 25293, read-out: MIC S. aureus 25293
[17] = MRSA clinical isolate 127/08, read-out: MIC S. aureus 127/08
[18] = MRSA clinical isolate 145/08, read-out: MIC S. aureus 145/08
[19] = MRSA clinical isolate 274/08, read-out: MIC S. aureus 274/08
[20] = MRSA, MRSA clinical isolate S908, read-out: MIC S. aureus S908
[21] = MRSA, MRSA clinical isolate T4/6, read-out: MIC S. aureus T4/6
[22] = MRSA, MRSA clinical isolate V4180, read-out: MIC S. aureus V4180
[23] = MRSA, summary over strains, read-out: MICs for the MRSA strains and S. aureus 25293
[24] = clinical isolate B32/1, read-out: MIC S. maltophilia B32/1
[25] = MDR clinical isolate NM8, read-out: MIC A. baumannii NM8

SMILES	MIC [2, 13] [µg/mL]	MIC [2, 14] [µg/mL]	MBC ([3]; DSM20044, strain DSM 20044) [µg/mL]	MIC [3, 15] [µg/mL]	MIC [5] [µg/mL]	MIC [7, 16] [µg/mL]	MBC [7] [µg/mL]	MIC [7, 17] [µg/mL]	MIC [7, 18] [µg/mL]	MIC [7, 19] [µg/mL]	MIC [7, 20] [µg/mL]	MIC [7, 21] [µg/mL]	MIC [7, 22] [µg/mL]	MIC [7, 23] [µg/mL]	MIC [8] [µg/mL]	MIC [9, 24] [µg/mL]	MIC [10] [µg/mL]	MIC [11] [µg/mL]	MIC [12, 25] [µg/mL]	also measured
NCCc1ccc2c(c1)[nH]c1ccccc12 [F2.3]	> 500	> 500	63 (≈ 300 µM)	125 (≈ 594 µM)	4 (≈ 19 µM)	125 (≈ 594 µM)	> 500	250 (≈ 1190 µM)	250 (≈ 1190 µM)	> 500	250 (≈ 1190 µM)	250 (≈ 1190 µM)	250 (≈ 1190 µM)	125 to 500 (≈ 594 to 2380 µM)	> 500	> 500	> 500	> 500	> 500	HC50 ([1]; erythrocytes from a healthy donor, up to 500 μg/ml, three independent incubations, read-out: LC50 hemolysis): > 500 µg/mL; MIC ([3]; DSM20044, strain DSM 20044, read-out: MIC S. epidermidis DSM 20044): 31 to 500 µg/mL (≈ 147 to 2380 µM); MIC ([3]; clinical isolate T7/3, read-out: MIC S. epidermidis T7/3): 31 µg/mL (≈ 147 µM); MIC ([3]; clinical isolate T37/8, read-out: MIC S. epidermidis T37/8): 125 µg/mL (≈ 594 µM); MIC ([3]; clinical isolate T6119, read-out: MIC S. epidermidis T6119): 125 µg/mL (≈ 594 µM); MIC ([3]; strain RP62A/1 (non-biofilm producer), read-out: MIC S. epidermidis RP62A/1): 125 µg/mL (≈ 594 µM); MIC ([3]; summary over strains, read-out: MICs for the S. epidermidis strains): 31 to 250 µg/mL (≈ 147 to 1190 µM); MIC S. epidermidis DSM 20044 ([3]; strain DSM 20044): 31 µg/mL (≈ 147 µM); IC50 ([4]; IC50 WalK): > 2000 µM; IC50 ([6]; IC50 PhoR^E): > 2000 µM
CC(C)NCC(O)COc1cccc2[nH]c3ccccc3c12 (stereo not shown) [F2.4]	500 (≈ 1680 µM)	500 (≈ 1680 µM)	500 (≈ 1680 µM)	> 500	64 (≈ 214 µM)	125 (≈ 419 µM)	250 (≈ 838 µM)	500 (≈ 1680 µM)	250 (≈ 838 µM)	500 (≈ 1680 µM)	500 (≈ 1680 µM)	> 500	500 (≈ 1680 µM)	125 to 500 (≈ 419 to 1680 µM)	> 500	500 (≈ 1680 µM)	125 (≈ 419 µM)	> 500	500 (≈ 1680 µM)	HC50 [1]: > 500 µg/mL; MBC ([2]; strain CFT 073, read-out: MBC E. coli CFT 073): 500 µg/mL (≈ 1680 µM); IC50 ([4]; read-out: IC50 WalK): > 2000 µM; IC50 ([6]; read-out: IC50 PhoR^E): > 2000 µM; MIC ([9]; clinical isolate B5/5, read-out: MIC S. maltophilia B5/5): > 500 µg/mL; MIC ([9]; clinical isolate B6/2, read-out: MIC S. maltophilia B6/2): 500 µg/mL (≈ 1680 µM); MIC ([9]; summary over strains, read-out: MICs for S. maltophilia strains): 500 µg/mL (≈ 1680 µM); MIC Streptococcus suis 3881/S10 ([10]; strain 3881/S10): 250 µg/mL (≈ 838 µM); MIC ([12]; MDR clinical isolate NM35, read-out: MIC A. baumannii NM35): > 500 µg/mL; MIC ([12]; MDR clinical isolate NM75, read-out: MIC A. baumannii NM75): > 500 µg/mL; MIC ([12]; MDR clinical isolate NM109, read-out: MIC A. baumannii NM109): 500 µg/mL (≈ 1680 µM); MIC ([12]; MDR clinical isolate NM124, read-out: MIC A. baumannii NM124): 500 µg/mL (≈ 1680 µM); MIC ([12]; summary over strains, read-out: MICs for A. baumannii strains): 500 µg/mL (≈ 1680 µM)
